US20060069110A1, “Substituted heterocyclic compounds and methods of use” (priority 2004, published 2006)

Tested on: THP1 cells (LPS induced TNF release)
Assay: Lipopolysaccharide-Activated THP1 Cell TNF Production Assay
Assay type: cell-based
Conditions: Homo sapiens, THP-1; THP1 cells, bacterial LPS, secreted TNF-α after 3 h at 37° C.; read-out: IC50 values in the THP1 cell assay (LPS induced TNF release)
Outline: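 THP1 cells at 1E6/mL were treated with 3-fold serial compound dilutions and LPS (1 μg/mL stock) for 3 h at 37 °C. Secreted TNF-α was quantified by electrochemiluminescent sandwich immunoassay. Percent of DMSO control versus concentration was fitted to a 4-parameter equation.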

IC50, ≤ 20 µM:
C[C@@H](Cc1cccc([C@@H](C)N)c1)Nc1nccc(N(C)c2cc(-c3ccccc3)c(=O)n(C)c2)n1 [Example 179, 5-((2-((S)-1-(3-((R)-1-Aminoethyl)phenyl)propan-2-ylamino)pyrimidin-4-yl)(methyl)amino)-1-methyl-3-phenylpyridin-2(1H)-one]
CC(Cc1cccc(CN)c1)Nc1nccc(N(C)c2cc(N)nc(-c3ccccc3)n2)n1 (stereo not shown) [Example 181, N^4-(2-(1-(3-(Aminomethyl)phenyl)propan-2-ylamino)pyrimidine-4-yl)-N^4-methyl-2-phenylpyrimidine-4,6-diamine]
Clc1nnc(Nc2ccnc(N3CCCC3Cc3ccccc3)n2)cc1-c1ccccc1 (stereo not shown) [Example 182, N-(2-(2-Benzylpyrrolidin-1-yl)pyrimidin-4-yl)-6-chloro-5-phenylpyridazin-3-amine]
Clc1ccccc1CCNc1nccc(Nc2cc(-c3ccccc3)c(Cl)nn2)n1 [Example 183, N^2-(2-Chlorophenethyl)-N4-(6-chloro-5-phenylpyridazin-3-yl)pyrimidine-2,4-di-amine]
CN(c1ccnc(NCCc2ccccc2)n1)c1nccc(-c2ccccc2)n1 [Example 184, N^4-Methyl-N^2-phenethyl-N^4-(4-phenylpyrimidin-2-yl)pyrimidine-2,4-diamine]
CN(c1ccnc(NCCc2ccccc2Cl)n1)c1nccc(-c2ccccc2)n1 [Example 185, N^2-(2-Chlorophenethyl)-N^4-methyl-N^4-(4-phenylpyrimidin-2-yl)pyrimidine-2,4-diamine]
CN(c1ccnc(NCCc2ccccc2)n1)c1nccc(C(C)(C)C)n1 [Example 186, N^4-(4-tert-Butylpyrimidin-2-yl)-N^4-methyl-N^2-phenethylpyrimidine-2,4-diamine]
CN(c1ccnc(-c2ccccc2)n1)c1ccnc(N2CC[C@H]2Cc2ccccc2)n1 [N-methyl-2-phenyl-N-(2-((2R)-2-(phenylmethyl)-1-azetidinyl)-4-pyrimidinyl)-4-pyrimidinamine]
Cc1nccn1-c1nccc(N(C)c2ccnc(-c3ccccc3)n2)n1 [N-methyl-N-(2-(2-methyl-1H-imidazol-1-yl)pyrimidin-4-yl)-2-phenylpyrimidin-4-amine]
CN(c1cnc(OCc2ccccc2)c(-c2ccccc2)c1)c1ccnc(NC2CCNCC2)n1 [N^4-(6-(Benzyloxy)-5-phenylpyridin-3-yl)-N^4-methyl-N^2-(piperidin-4-yl)-pyrimidine-2,4-diamine]
